This passage reports IC50 results from patent US9556150B2, “Inhibitors of bruton's tyrosine kinase” (Hoffmann-La Roche Inc., priority 2013, dated 2017).

The experiment deals with Bruton's Tyrosine Kinase (BTK), inactivated state (Homo sapiens (Human), UniProt Q06187). In words: Bruton's Tyrosine Kinase (BTK) Inhibition TR-FRET (Time Resolved FRET) competition assay. Format: binding. Conditions: TR-FRET competition with Kinase Tracer 178, BTK-Eu complex, 18-24 h at 14° C. The protocol:
Bruton's Tyrosine Kinase (BTK) Inhibition TR-FRET (Time Resolved FRET) Assay
This BTK competition assay measures compound potency (IC50) for the inactivated state of Bruton's Tyrosine Kinase using FRET (Förster/Fluorescence Resonance Energy Transfer) technology. The BTK-Eu complex was incubated on ice one hour prior to use at a starting concentration of 50 nM BTK-Bioease™: 10 nM Eu-streptavidin (Perkin-Elmer Catalog#AD0062). The assay buffer consisted of 20 mM HEPES (pH 7.15), 0.1 mM DTT, 10 mM MgCl2, 0.5 mg/ml BSA with 3% Kinase Stabilizer (Fremont Biosolutions, Catalog #STB-K02). After 1 h, the reaction mixture from above was diluted 10 fold in assay buffer to make 5 nM BTK: 1 nM Eu-Streptavidin complex (donor fluorophore). 18 μl of a mixture of 0.11 nM BTK-Eu and 0.11 nM Kinase Tracer 178 (Invitrogen, Catalog #PV5593,) with BTK-Eu alone as no negative control, was then dispensed into 384-well flat bottom plates (Greiner, 784076). Compounds to be tested in assay were prepared as 10× concentrations and serial dilution in half-log increments was performed in DMSO so as to generate 10 point curves. To initiate the FRET reaction, compounds prepared as 10× stock in DMSO was added to the plates and the plates were incubated 18-24 h at 14° C.
After the incubation the plates were read on a BMG Pherastar Fluorescent plate reader (or equivalent) and used to measure the emission energy from the europium donor fluorophore (620 nm emission) and the FRET (665 nm emission). The negative control well values were averaged to obtain the mean minimum. The positive “no inhibitor” control wells were averaged to obtain the mean maximum. Percent of maximal FRET was calculated using following equation: % max FRET=100×[(FSR cmpd−FSR mean min)/(FSR mean max−FSR mean min)]
where FSR=FRET Signal ratio. % Max FRET curves were plotted in Activity Base (Excel) and the IC50(%), hill slope, z′ and % CV were determined. The mean IC50 and standard deviation will be derived from duplicate curves (singlet inhibition curves from two independent dilutions) using Microsoft Excel.
Representative compound data for this assay are listed below in Table II.
In general terms: Time-resolved FRET reads energy transfer from a long-lived donor to a nearby acceptor.

Counter-ions that a name gives are not always drawn.

Usually IC50 stands for the point on the concentration scale where inhibition reaches its midpoint. A low value points to greater potency in that assay.

Sequence of Bruton's Tyrosine Kinase (BTK), inactivated state (Q06187 whole entry): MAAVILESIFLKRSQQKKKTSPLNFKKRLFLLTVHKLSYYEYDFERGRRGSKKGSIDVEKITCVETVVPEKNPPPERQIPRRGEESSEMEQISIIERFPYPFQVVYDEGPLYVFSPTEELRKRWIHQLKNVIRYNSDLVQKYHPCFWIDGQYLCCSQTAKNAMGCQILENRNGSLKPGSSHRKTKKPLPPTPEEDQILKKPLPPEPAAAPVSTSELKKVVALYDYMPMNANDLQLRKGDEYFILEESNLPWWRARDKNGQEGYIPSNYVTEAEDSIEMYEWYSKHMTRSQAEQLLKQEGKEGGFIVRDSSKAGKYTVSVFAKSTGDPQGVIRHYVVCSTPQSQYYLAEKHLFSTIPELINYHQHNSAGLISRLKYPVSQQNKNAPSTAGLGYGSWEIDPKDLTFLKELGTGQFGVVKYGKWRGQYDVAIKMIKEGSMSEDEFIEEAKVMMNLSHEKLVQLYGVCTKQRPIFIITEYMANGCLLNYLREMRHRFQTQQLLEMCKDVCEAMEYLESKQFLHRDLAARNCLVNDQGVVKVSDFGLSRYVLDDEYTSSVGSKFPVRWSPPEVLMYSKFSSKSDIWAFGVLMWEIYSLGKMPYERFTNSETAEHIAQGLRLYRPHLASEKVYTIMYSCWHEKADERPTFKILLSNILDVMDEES

The molecule `COc1cc(Oc2cccc(F)c2F)ccc1-n1ncc(C(=O)c2cc3cc(C(=O)N4CCOCC4)ccc3[nH]2)c1N` [Example I-28, {5-Amino-1-[4-(2,3-difluoro-phenoxy)-2-methoxy-phenyl]-1H-pyrazol-4-yl}-[5-(morpholine-4-carbonyl)-1H-indol-2-yl]-methanone] registered an IC50 of 6.9 nM.

On to `Nc1c(C(=O)c2cc3cc(C(=O)N4CCOCC4)ccc3[nH]2)cnn1-c1ccc(Oc2cccc(F)c2F)cc1O` [Example I-29, {5-Amino-1-[4-(2,3-difluoro-phenoxy)-2-hydroxy-phenyl]-1H-pyrazol-4-yl}-[5-(morpholine-4-carbonyl)-1H-indol-2-yl]-methanone], for which the IC50 was 4.3 nM.

The molecule `N#Cc1cccc(Oc2ccc(-n3ncc(C(=O)c4cc5cc(C(=O)N6CCOCC6)ccc5[nH]4)c3N)c(Cl)c2)c1` [Example I-30, 3-(4-{5-Amino-4-[5-(morpholine-4-carbonyl)-1H-indole-2-carbonyl]-pyrazol-1-yl}-3-chloro-phenoxy)-benzonitrile] gave an IC50 of 6.1 nM.

In the case of `COC(=O)c1ccc2[nH]c(C(=O)c3cnn(-c4ccc(Oc5cccc(C#N)c5)cc4C)c3N)cc2c1` [Example I-31, 2-{5-Amino-1-[4-(3-cyano-phenoxy)-2-methyl-phenyl]-1H-pyrazole-4-carbonyl}-H-indole-5-carboxylic acid methyl ester], the IC50 amounted to 29 nM.

`Cc1cc(Oc2cccc(C#N)c2)ccc1-n1ncc(C(=O)c2cc3cc(C(=O)O)ccc3[nH]2)c1N` [Example I-32, 2-{5-Amino-1-[4-(3-cyano-phenoxy)-2-methyl-phenyl]-1H-pyrazole-4-carbonyl}-H-indole-5-carboxylic acid]: the IC50 was 22 nM.

For the molecule `N#Cc1cccc(Oc2ccc(-n3ncc(C(=O)c4cc5cc(Br)ccc5[nH]4)c3N)c(Cl)c2)c1` [Example I-33, 3-{4-[5-Amino-4-(5-bromo-1H-indole-2-carbonyl)-pyrazol-1-yl]-3-chloro-phenoxy}-benzonitrile], the IC50 came to 430 nM.

On to `N#Cc1cccc(Oc2ccc(-n3ncc(C(=O)c4cc5cc(C(=O)O)ccc5[nH]4)c3N)c(Cl)c2)c1` [Example I-34, 2-{5-Amino-1-[2-chloro-4-(3-cyano-phenoxy)-phenyl]-1H-pyrazole-4-carbonyl}-1H-indole-5-carboxylic acid], for which the IC50 is 25.1 nM.

In turn, `COCCNC(=O)c1ccc2[nH]c(C(=O)c3cnn(-c4ccc(Oc5cccc(F)c5F)cc4C)c3N)cc2c1` [Example I-35, 2-{5-Amino-1-[4-(2,3-difluoro-phenoxy)-2-methyl-phenyl]-1H-pyrazole-4-carbonyl}-1H-indole-5-carboxylic acid (2-methoxy-ethyl)-amide] came in with an IC50 of 1.8 nM.

Molecule `Cc1cc(Oc2cccc(C#N)c2)ccc1-n1ncc(C(=O)c2cc3cc(C(=O)NCCN)ccc3[nH]2)c1N` [Example I-36, 2-{5-Amino-1-[4-(3-cyano-phenoxy)-2-methyl-phenyl]-1H-pyrazole-4-carbonyl}-H-indole-5-carboxylic acid (2-amino-ethyl)-amide] registered a concentration for half-maximal inhibition (IC50) of 5 nM.

`NC(=O)c1cccc(Oc2ccc(-n3ncc(C(=O)c4cc5cc(C(=O)N6CCOCC6)ccc5[nH]4)c3N)c(Cl)c2)c1` [Example I-37, 3-(4-{5-Amino-4-[5-(morpholine-4-carbonyl)-1H-indole-2-carbonyl]-pyrazol-1-yl}-3-chloro-phenoxy)-benzamide] registered an IC50 of 50 nM.

In the case of `COC(=O)c1ccc2[nH]c(C(=O)c3cnn(-c4ccc(Oc5cccc(C#N)c5)cc4C)c3N)nc2c1` [Example I-38, 2-{5-Amino-1-[4-(3-cyano-phenoxy)-2-methyl-phenyl]-1H-pyrazole-4-carbonyl}-1H-benzoimidazole-5-carboxylic acid methyl ester], the IC50 stood at 150 nM.

`Cc1cc(Oc2cccc(C#N)c2)ccc1-n1ncc(C(=O)c2nc3cc(C(=O)N4CCOCC4)ccc3[nH]2)c1N` [Example I-39, 3-(4-{5-Amino-4-[5-(morpholine-4-carbonyl)-1H-benzoimidazole-2-carbonyl]-pyrazol-1-yl}-3-methyl-phenoxy)-benzonitrile] gave an IC50 of 24 nM.

The molecule `COCCNC(=O)c1ccc2[nH]c(C(=O)c3cnn(-c4ccc(Oc5cccc(C#N)c5)cc4C)c3N)nc2c1` [Example I-40, 2-{5-Amino-1-[4-(3-cyano-phenoxy)-2-methyl-phenyl]-1H-pyrazole-4-carbonyl}-1H-benzoimidazole-5-carboxylic acid (2-methoxy-ethyl)-amide] displayed an IC50 of 23 nM.

The molecule `N#CNC(=O)c1ccc2[nH]c(C(=O)c3cnn(-c4ccc(Oc5cccc(C#N)c5)cc4Cl)c3N)cc2c1` [Example I-41, 2-{5-Amino-1-[2-chloro-4-(3-cyano-phenoxy)-phenyl]-1H-pyrazole-4-carbonyl}-N-cyano-1H-indole-5-carboxylic acid amide] had an IC50 of 52 nM.

The molecule `Cc1cc(Oc2cccc(C#N)c2)ccc1-n1ncc(C(=O)c2nc3cc(C(=O)O)ccc3[nH]2)c1N` [Example I-42, 2-{5-Amino-1-[4-(3-cyano-phenoxy)-2-methyl-phenyl]-1H-pyrazole-4-carbonyl}-1H-benzoimidazole-5-carboxylic acid] showed an IC50 of 130 nM.

In turn, `Cc1cc(Oc2ccccc2C#N)ccc1-n1ncc(C(=O)c2cc3cc(C(=O)N4CCOCC4)ccc3[nH]2)c1N` [Example I-43, 2-(4-{5-Amino-4-[5-(morpholine-4-carbonyl)-1H-indole-2-carbonyl]-pyrazol-1-yl}-3-methyl-phenoxy)-benzonitrile] came in with an IC50 of 1.3 nM.

For `CN1CCN(C(=O)c2ccc3[nH]c(C(=O)c4cnn(-c5ccc(Oc6cccc(C#N)c6)cc5Cl)c4N)cc3c2)CC1` [Example I-44, 3-(4-{5-Amino-4-[5-(4-methyl-piperazine-1-carbonyl)-1H-indole-2-carbonyl]-pyrazol-1-yl}-3-chloro-phenoxy)-benzonitrile hydrochloride salt], the IC50 was determined as 8 nM.

For `N#Cc1cccc(Oc2ccc(-n3ncc(C(=O)c4cc5cc(C(=O)NS(=O)(=O)C6CC6)ccc5[nH]4)c3N)c(Cl)c2)c1` [Example I-45, Cyclopropanesulfonic acid (2-{5-amino-1-[2-chloro-4-(3-cyano-phenoxy)-phenyl]-1H-pyrazole-4-carbonyl}-1H-indole-5-carbonyl)-amide], the IC50 was determined as 1.7 nM.

`CN1CCN(C(=O)c2ccc3[nH]c(C(=O)c4cnn(-c5ccc(Oc6ccccc6C(=O)N(C)C)cc5Cl)c4N)cc3c2)CC1` [Example I-46, 2-(4-{5-Amino-4-[5-(4-methyl-piperazine-1-carbonyl)-1H-indole-2-carbonyl]-pyrazol-1-yl}-3-chloro-phenoxy)-N,N-dimethyl-benzamide] yielded an IC50 of 4.2 nM.

Turning to `CN1CCN(C(=O)c2ccc3[nH]c(C(=O)c4cnn(-c5ccc(Oc6cccc(C(=O)N(C)C)c6)cc5Cl)c4N)cc3c2)CC1` [Example I-47, 3-(4-{5-Amino-4-[5-(4-methyl-piperazine-1-carbonyl)-1H-indole-2-carbonyl]-pyrazol-1-yl}-3-chloro-phenoxy)-N,N-dimethyl-benzamide], the IC50 was 32 nM.

With `N#Cc1cccc(Oc2ccc(-n3ncc(C(=O)c4cc5cc(C(=O)O)ccc5[nH]4)c3N)c(Cl)c2)c1F` [Example I-48, 2-{5-Amino-1-[2-chloro-4-(3-cyano-2-fluoro-phenoxy)-phenyl]-1H-pyrazole-4-carbonyl}-1H-indole-5-carboxylic acid], the IC50 was found to be 3.2 nM.

Turning to `CN(C)CCNC(=O)c1ccc2[nH]c(C(=O)c3cnn(-c4ccc(Oc5ccccc5C(=O)N(C)C)cc4Cl)c3N)cc2c1` [Example I-49, 2-{5-Amino-1-[2-chloro-4-(2-dimethylcarbamoyl-phenoxy)-phenyl]-1H-pyrazole-4-carbonyl}-1H-indole-5-carboxylic acid (2-dimethylamino-ethyl)-amide], the IC50 worked out at 1.4 nM.

In turn, `CN(C)C(=O)c1ccccc1Oc1ccc(-n2ncc(C(=O)c3cc4cc(C(=O)N5CCC(N(C)C)C5)ccc4[nH]3)c2N)c(Cl)c1` (stereo not drawn) [Example I-50, 2-(4-{5-Amino-4-[5-(3-dimethylamino-pyrrolidine-1-carbonyl)-1H-indole-2-carbonyl]-pyrazol-1yl}-3-chloro-phenoxy)-N,N-dimethyl-benzamide] came in with an IC50 of 2.5 nM.

With `CN(C)C(=O)c1ccccc1Oc1ccc(-n2ncc(C(=O)c3cc4cc(C(=O)N5CCNCC5)ccc4[nH]3)c2N)c(Cl)c1` [Example I-51, 2-(4-{5-Amino-4-[5-(piperazine-1-carbonyl)-1H-indole-2-carbonyl]-pyrazol-1-yl}-3-chloro-phenoxy)-N,N-dimethyl-benzamide acetic acid salt], the IC50 was 1.1 nM.
